Measurements published in ChEMBL document CHEMBL3994565 (Medchemcomm, 2016).
Calls of active or inactive are those of the source. The rule behind the calls is not given here.

Key:
[1] = Cytotoxicity against MDCK cells assessed as cell viability at 100 uM after 40 hrs by CellTiter-Glo assay relative to control; assay type: cell-based, Canis lupus familiaris; settings: dog, read-out: Activity
[2] = Antiviral activity against Influenza A virus (A/WSN/33(H1N1)) infected in MDCK cells assessed as inhibition of virus-induced cytopathic effect at 100 uM incubated for 40 hrs by CellTiter-Glo assay; assay type: functional, Influenza A virus (A/WSN/1933(H1N1))
[3] = Binding affinity to recombinant Influenza virus hemagglutinin by surface plasmon resonance analysis; set-up: species or system unidentified influenza virus; settings: read-out: Kd(app)
[4] = Cytotoxicity against MDCK cells assessed as cell viability at 100 uM after 40 hrs in presence of betulinic acid by CellTiter-Glo assay; assay type: cell-based, Canis lupus familiaris; settings: dog, read-out: Activity
[5] = Selectivity index, ratio of CC50 against uninfected MDCK cells to IC50 against Influenza A virus (A/WSN/33(H1N1)) infected MDCK cells; assay type: toxicity, cell-based; settings: dog; read-out: Ratio CC50/IC50
[6] = Antiviral activity against Influenza A virus (A/WSN/33(H1N1)) infected in MDCK cells assessed as inhibition of viral production up to 2 hrs post-infection by plaque formation assay; assay type: functional, Influenza A virus (A/WSN/1933(H1N1))
[7] = system: Influenza A virus (A/WSN/1933(H1N1)); experiment: Antiviral activity against Influenza A virus (A/WSN/33(H1N1)) infected in MDCK cells assessed as inhibition of viral production after 2 hrs post-infection by plaque formation assay; assay type: functional, cell-based
[8] = system: Influenza A virus (A/WSN/1933(H1N1)); experiment: Inhibition of Influenza A virus (A/WSN/33(H1N1)) neuraminidase activity using 4-MUNANA as substrate incubated for 30 mins by fluorescence spectrophotometry relative to control
[9] = molecular target: Hemagglutinin (Influenza A virus) (UniProt B4URE7); experiment: Inhibition of Influenza A virus (A/WSN/33(H1N1)) hemagglutinin-mediated aggregation of chicken erythrocytes after 30 mins; settings: Influenza A virus (A/WSN/1933(H1N1))
[10] = Cytotoxicity against MDCK cells assessed as decrease in cell viability after 40 hrs by CellTiter-Glo assay; assay type: cell-based, Canis lupus familiaris; settings: dog
[11] = Antiviral activity against Influenza A virus (A/WSN/33(H1N1)) infected in MDCK cells assessed as inhibition of virus-induced cytopathic effect incubated for 40 hrs by CellTiter-Glo assay; assay type: functional, cell-based, Influenza A virus (A/WSN/1933(H1N1))
[12] = Cytotoxicity against MDCK cells assessed as cell viability at 100 uM after 40 hrs in presence of sialic acid by CellTiter-Glo assay; assay type: cell-based, Canis lupus familiaris; settings: dog, read-out: Activity
[13] = Antiviral activity against Influenza A virus (A/WSN/33(H1N1)) infected in MDCK cells assessed as inhibition of virus-induced cytopathic effect at 10 uM incubated for 40 hrs by CellTiter-Glo assay; assay type: functional, Influenza A virus (A/WSN/1933(H1N1))
[14] = Cytotoxicity against MDCK cells assessed as cell viability at 10 uM after 40 hrs by CellTiter-Glo assay; assay type: cell-based, Canis lupus familiaris; settings: dog, read-out: Activity
[15] = Antiviral activity against Influenza A virus (A/WSN/33(H1N1)) infected in MDCK cells assessed as inhibition of virus-induced cytopathic effect at 50 uM incubated for 40 hrs by CellTiter-Glo assay; assay type: functional, Influenza A virus (A/WSN/1933(H1N1))
[16] = Cytotoxicity against MDCK cells assessed as cell viability at 50 uM after 40 hrs by CellTiter-Glo assay; assay type: cell-based, Canis lupus familiaris; settings: dog, read-out: Activity

Sequence of Hemagglutinin (Influenza A virus) (B4URE7 as listed by the source): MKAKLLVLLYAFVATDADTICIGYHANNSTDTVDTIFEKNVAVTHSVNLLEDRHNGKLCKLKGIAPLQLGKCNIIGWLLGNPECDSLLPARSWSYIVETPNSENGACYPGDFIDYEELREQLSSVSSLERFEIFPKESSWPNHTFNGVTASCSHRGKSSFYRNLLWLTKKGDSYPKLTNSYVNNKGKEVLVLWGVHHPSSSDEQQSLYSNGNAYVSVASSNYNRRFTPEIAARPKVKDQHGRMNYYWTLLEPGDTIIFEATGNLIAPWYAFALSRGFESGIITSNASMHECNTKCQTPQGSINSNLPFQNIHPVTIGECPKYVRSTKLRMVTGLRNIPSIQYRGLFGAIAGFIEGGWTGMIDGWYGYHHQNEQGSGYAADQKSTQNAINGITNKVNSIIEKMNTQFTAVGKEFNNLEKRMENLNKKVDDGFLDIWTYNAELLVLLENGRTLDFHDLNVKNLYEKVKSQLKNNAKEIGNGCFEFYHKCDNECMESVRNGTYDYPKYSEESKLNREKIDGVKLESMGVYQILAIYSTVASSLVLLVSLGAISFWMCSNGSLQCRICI

Row | SMILES | viability at 40 h, 100 µM [1] [%] | inhibition at 100 µM [2] [%] | Kd [3] [µM] | selectivity ratio [5] | inhibition [8] | CC50 at 40 h [10] [µM] | IC50 [11] [µM] | also measured
1 | CC(=O)N[C@H]1[C@H]([C@H](O)[C@H](O)CO)O[C@@](O)(C(=O)O)C[C@@H]1O | 96.4 | 2 | 692 | – | – | – | – | viability at 40 h, 100 µM [4]: 20.3%
2 | C=C(C)[C@@H]1CC[C@]2(C(=O)OCCO[C@]3(C(=O)OC)C[C@H](O)[C@@H](NC(C)=O)[C@H]([C@H](O)[C@H](O)CO)O3)CC[C@]3(C)[C@H](CC[C@@H]4[C@@]5(C)CC[C@H](O)C(C)(C)[C@@H]5CC[C@]43C)[C@@H]12 | 98.3 | 94.8 | 17 | > 12.1 | inactive | > 500 | 41.2 | inhibition (INH) [6]: >75%; inhibition [7]: inactive; inhibition [9]: Dose-dependent effect
3 | C=C(C)[C@@H]1CC[C@]2(C(=O)O)CC[C@]3(C)[C@H](CC[C@@H]4[C@@]5(C)CC[C@H](O)C(C)(C)[C@@H]5CC[C@]43C)[C@@H]12 [BETULINIC ACID] | 22.8 | – | 30 | – | – | – | – | viability at 40 h, 100 µM [12]: 20.3%
4 | COc1cc(/C=C/C(=O)CC(=O)/C=C/c2ccc(O)c(OC)c2)ccc1O [CURCUMIN] | – | – | – | 7.2 | – | 48.3 | 6.7 | inhibition at 10 µM [13]: 69.3%; viability at 40 h, 10 µM [14]: 98.7%
5 | CCOC(=O)C1=C[C@@H](OC(CC)CC)[C@H](NC(C)=O)[C@@H](N)C1 [OSELTAMIVIR] | – | – | – | > 10.8 | – | > 500 | 46.5 | inhibition at 50 µM [15]: 72.6%; viability at 40 h, 50 µM [16]: 98.5%
6 | C=C(C)[C@@H]1CC[C@]2(C(=O)OCCO[C@]3(C(=O)OC)C[C@H](OC(C)=O)[C@@H](NC(C)=O)[C@H]([C@H](OC(C)=O)[C@@H](COC(C)=O)OC(C)=O)O3)CC[C@]3(C)[C@H](CC[C@@H]4[C@@]5(C)CC[C@H](O)C(C)(C)[C@@H]5CC[C@]43C)[C@@H]12 | 80.7 | 86.6 | – | 2.9 | inactive | 178 | 61.3 | –
